Source: patent publication US5342947A, “Preparation of water soluble camptothecin derivatives” (Glaxo Inc., priority 1992, dated 1994)
Where two headings read alike, the source gives them in different places.

Experiments:
certain solid tumors = conditions: laboratory animals; cited from earlier work
leukemia (L-1210) = conditions: laboratory animals; cited from earlier work
topoisomerase Type I = target: T1, topoisomerase Type I (Bos taurus, UniProt F1MN93); assay: Cleavable Complex in vitro Assay (topoisomerase Type I inhibitory activity); format: biochemical
T1 sequence (F1MN93 1-767): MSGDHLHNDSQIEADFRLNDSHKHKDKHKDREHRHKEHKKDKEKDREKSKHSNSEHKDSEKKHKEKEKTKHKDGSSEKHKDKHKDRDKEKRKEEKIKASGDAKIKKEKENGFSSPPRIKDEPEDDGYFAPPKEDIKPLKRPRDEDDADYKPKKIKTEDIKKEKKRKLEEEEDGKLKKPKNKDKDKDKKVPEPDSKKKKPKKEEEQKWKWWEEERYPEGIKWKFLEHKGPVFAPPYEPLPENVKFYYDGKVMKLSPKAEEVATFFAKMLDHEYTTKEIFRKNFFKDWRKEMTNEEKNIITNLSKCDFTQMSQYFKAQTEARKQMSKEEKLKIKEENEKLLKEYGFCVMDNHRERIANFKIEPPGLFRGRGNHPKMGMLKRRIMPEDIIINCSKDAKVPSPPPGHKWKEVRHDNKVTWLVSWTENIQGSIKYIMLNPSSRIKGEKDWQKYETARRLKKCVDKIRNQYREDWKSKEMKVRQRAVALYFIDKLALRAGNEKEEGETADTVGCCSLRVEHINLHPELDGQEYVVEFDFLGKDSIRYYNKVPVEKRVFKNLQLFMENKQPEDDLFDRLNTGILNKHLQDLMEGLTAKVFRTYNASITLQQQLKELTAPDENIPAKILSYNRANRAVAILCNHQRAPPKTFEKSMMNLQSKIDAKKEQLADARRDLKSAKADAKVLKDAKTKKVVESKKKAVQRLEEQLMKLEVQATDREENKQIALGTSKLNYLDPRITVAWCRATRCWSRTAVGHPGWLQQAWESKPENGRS
Source text: This assay performed according to the method described in Hsiang, Y. et al., J. Biol. Chem., 260:14873-14878 (1985), correlates well with in vivo anti-tumor activity of topoisomerase inhibitors in animal models of cancer, e.g., camptothecin and its analogs. See Hsiang et al., Cancer Research, 49:4385-4389 (1989) and Jaxel et al., Cancer Research, 49:1465-1469 (1989).
The term "IC50 " means the concentration of a compound of formula (I) at which 50% of the DNA substrate has been captured by topoisomerase I.

HT-29 human colon tumor = assay: Human Colorectal Adenocarcinoma HT-29 Xenograft in vivo Assay; set-up: species or system human tumor xenograft in female NU/NU mice; conditions: for tumor wt day 50 / tumor wt day 14: s.c. twice a week for 5 weeks; for effect on tumor (stasis / regression): after 5 weeks of dosing, day 50 vs day 14, ratio 1 = stasis, <1 = regression
Protocol: Female NU/NU mice weighing 21±2 g, are used for this modified version of the test described by B. C. Giovanella, et al., Science, 246 1046 (1989). Control and test animals are injected subcutaneously in the sub-scapular region with a suspension of 10^6 viable HT-29 human colon tumor cells on day 0. Tumors are allowed to grow for 2 weeks prior to drug administration. For each drug, several doses are chosen based on its in vitro activity against topoisomerase I. Each dose level group contains 8 animals. The test compounds are prepared in either 0.1M acetate buffer, pH 5 (vehicle "a") or 87.5% phosphate buffered saline, 12.375% dimethylsulfoxide, and 0.125% Tween 80 (trademark of ICI America for polyoxyethylenesorbitan monooleate) (vehicle "b") and are administered subcutaneously twice a week for 5 weeks beginning on day 14. Doses are given on a mg/kg basis according to the mean body weight for each cage.
Tumor weight is calculated from two perpendicular caliper measurements of the tumor using the formula, tumor weight=length×width^2 […] in millimeters. For each animal, tumor weight is monitored over the course of the experiment. For each group, the results are expressed as the ratio of the mean tumor weight immediately after 5 weeks of treatment (day 50) divided by the mean tumor weight immediately before treatment (day 14). […] The criterion for antitumor activity is at least 50% inhibition of tumor growth after 5 weeks of dosing (day 50), giving a ratio of less than or equal to […].

[1] = Wani et al., J. Med. Chem. 29, 2358 (1986) and 30, 2317 (1987); cited from earlier work
[2] = in words, background; cited from earlier work
[3] = Cleavable Complex Assay, read-out: Relative IC50 (concentration at which 50% of the DNA substrate has been captured by topoisomerase I)

SMILES: CC[C@@]1(O)C(=O)OCc2c1cc1n(c2=O)Cc2cc3ccccc3nc2-1 [camptothecin, Camptothecin]
- effectiveness in treatment of certain solid tumors (certain solid tumors): effective
- effectiveness in treatment of leukemia (L-1210) (leukemia (L-1210)): effective

SMILES: CCC1(O)C(=O)OCc2c1cc1n(c2=O)Cc2c-1nc1cc3c(cc1c2CN1CCN(C)CC1)OCCO3 (racemic) [Example 10, 7-(4-methylpiperazinomethylene)-10, 11-ethylenedioxy-20(R,S)-camptothecin]
- IC50 (topoisomerase Type I; [3]): 0.5 to 1 µM

SMILES: CCN(CC)Cc1c2c(nc3cc4c(cc13)OCCO4)-c1cc3c(c(=O)n1C2)COC(=O)C3(O)CC (racemic) [Example 13, 7-Diethylaminomethylene-10, 11-ethylenedioxy-20(R,S)-camptothecin]
- IC50 (topoisomerase Type I): 0.5 to 1 µM

SMILES: CCC1(O)C(=O)OCc2c1cc1n(c2=O)Cc2c-1nc1cc3c(cc1c2CN(C)CCO)OCCO3 (racemic) [Example 16, 7-N-Methylethanolaminomethylene-10, 11-ethylenedioxy-20(R,S)-camptothecin]
- IC50 (topoisomerase Type I): 1 to 2 µM

SMILES: CCC1(O)C(=O)OCc2c1cc1n(c2=O)Cc2c-1nc1cc3c(cc1c2CN(C)CCO)OCO3 (racemic) [Example 15, 7-N-Methylethanolaminomethylene-10, 11-methylenedioxy-20(R,S)-camptothecin]
- IC50 (topoisomerase Type I): 1 to 2 µM

SMILES: CCC1(O)C(=O)OCc2c1cc1n(c2=O)Cc2c-1nc1cc3c(cc1c2CN1CCCC1)OCCO3 (racemic) [Example 7, 7-Pyrrolidinomethylene-10,11-ethylenedioxy-20(R,S)-camptothecin]
- IC50 (topoisomerase Type I): 1 to 2 µM

SMILES: CCC1(O)C(=O)OCc2c1cc1n(c2=O)Cc2c-1nc1cc3c(cc1c2CN1CCOCC1)OCCO3 (racemic) [Example 5, 7-Morpholinomethylene-10,11-ethylenedioxy-20(R,S)-camptothecin]
- IC50 (topoisomerase Type I): < 0.5 µM

SMILES: CC[C@@]1(O)C(=O)OCc2c1cc1n(c2=O)Cc2c-1nc1cc3c(cc1c2CN(C)C)OCO3 [Example 2, 7-Dimethylaminomethylene-10, 11-methylenedioxy-20(S)-camptothecin]
- IC50 (topoisomerase Type I): < 0.5 µM
- tumor wt day 50 / tumor wt day 14 (HT-29 human colon tumor; 0.8 mg/kg (optimal dose), vehicle b (PBS/DMSO/Tween 80), vehicle control 21.8): 1.8

SMILES: CC[C@@]1(O)C(=O)OCc2c1cc1n(c2=O)Cc2c-1nc1cc3c(cc1c2CN1CCOCC1)OCCO3 [Example 6, 7-Morpholinomethylene-10,11-ethylenedioxy-20(S)-camptothecin]
- IC50 (topoisomerase Type I): < 0.5 µM
- tumor wt day 50 / tumor wt day 14 (HT-29 human colon tumor; 1.0 mg/kg (optimal dose), vehicle b (PBS/DMSO/Tween 80), vehicle control 21.8): 1.0
- effect on tumor (stasis / regression) (HT-29 human colon tumor): tumor stasis

SMILES: CC[C@@]1(O)C(=O)OCc2c1cc1n(c2=O)Cc2c-1nc1cc3c(cc1c2CN1CCC1)OCCO3 [Example 22, 7-Azetidinomethylene-10, 11-ethylenedioxy-20(S)-camptothecin]
- tumor wt day 50 / tumor wt day 14 (HT-29 human colon tumor; 12.0 mg/kg (optimal dose), vehicle a (0.1M acetate buffer, pH 5), vehicle control 20.0): 1.6

SMILES: CCC1(O)C(=O)OCc2c1cc1n(c2=O)Cc2c-1nc1cc3c(cc1c2CN(CCO)CCO)OCCO3 (racemic) [Example 17, 7-Diethanolaminomethylene-10, 11-ethylenedioxy-20(R,S)-camptothecin]
- IC50 (topoisomerase Type I): < 0.5 µM

SMILES: CCC1(O)C(=O)OCc2c1cc1n(c2=O)Cc2c-1nc1cc3c(cc1c2CN1CCCCC1)OCO3 (racemic) [Example 8, 7-Piperidinomethylene-10,11-methylenedioxy-20(R,S)-camptothecin]
- IC50 (topoisomerase Type I): > 2 µM

SMILES: CC[C@@]1(O)C(=O)OCc2c1cc1n(c2=O)Cc2c-1nc1cc3c(cc1c2CN1CCN(C)CC1)OCCO3 [Example 11, 7-(4-methylpiperazinomethylene)-10, 11-ethylenedioxy-20(S)-camptothecin]
- IC50 (topoisomerase Type I; [3]): < 0.5 µM
- tumor wt day 50 / tumor wt day 14 (HT-29 human colon tumor; 9.0 mg/kg (optimal dose), vehicle a (0.1M acetate buffer, pH 5), vehicle control 20.0): 0.6
- effect on tumor (stasis / regression) (HT-29 human colon tumor): tumor regression

SMILES: CC[C@@]1(O)C(=O)OCc2c1cc1n(c2=O)Cc2c-1nc1cc3c(cc1c2CN(C)C)OCCO3 [Example 4, 7-Dimethylaminomethylene-10, 11-ethylenedioxy-20(S)-camptothecin]
- IC50 (topoisomerase Type I): 0.5 to 1 µM
- tumor wt day 50 / tumor wt day 14 (HT-29 human colon tumor; 7.0 mg/kg (optimal dose), vehicle a (0.1M acetate buffer, pH 5), vehicle control 20.0): 1.3
- tumor wt day 50 / tumor wt day 14 (HT-29 human colon tumor; 7.0 mg/kg (optimal dose), vehicle b (PBS/DMSO/Tween 80), vehicle control 21.8): 1.0
- effect on tumor (stasis / regression) (HT-29 human colon tumor): tumor stasis

SMILES: CC[C@@]1(O)C(=O)OCc2c1cc1n(c2=O)Cc2c-1nc1cc3c(cc1c2CN1CCN(C)CC1)OCO3 [Example 23, 7-(4-Methylpiperazinomethylene)-10, 11-methylenedioxy-20(S)-camptothecin]
- tumor wt day 50 / tumor wt day 14 (HT-29 human colon tumor; 3.0 mg/kg (optimal dose), vehicle a (0.1M acetate buffer, pH 5), vehicle control 20.0): 0.5
- effect on tumor (stasis / regression) (HT-29 human colon tumor): tumor regression

SMILES: CCC1(O)C(=O)OCc2c1cc1n(c2=O)Cc2c-1nc1cc3c(cc1c2CN1CCC1)OCO3 (racemic) [Example 19, 7-Azetidinomethylene-10, 11-methylenedioxy-20(R,S)-camptothecin]
- IC50 (topoisomerase Type I): 1 to 2 µM

SMILES: CCC1(O)C(=O)OCc2c1cc1n(c2=O)Cc2cc3cc4c(cc3nc2-1)OCO4 (centres unmarked) [10, 11-methylenedioxycamptothecin]
- potency relative to unsubstituted camptothecin [1]: more potent than unsubstituted camptothecin
- solubility in water / physiologically compatible, aqueous media [2]: as poor as camptothecin

SMILES: CCC1(O)C(=O)OCc2c1cc1n(c2=O)Cc2c-1nc1cc3c(cc1c2CN(C)C)OCO3 (racemic) [Example 1]
- IC50 (topoisomerase Type I; read-out: Relative IC50 (concentration at which 50% of the DNA substrate has been captured by topoisomerase I), Cleavable Complex Assay): < 0.5 µM

SMILES: CC[C@@]1(O)C(=O)OCc2c1cc1n(c2=O)Cc2c-1nc1cc3c(cc1c2CN1CCC1)OCO3 [Example 20, 7-Azetidinomethylene-10, 11-methylenedioxy-20(S)-camptothecin]
- tumor wt day 50 / tumor wt day 14 (HT-29 human colon tumor; 1.5 mg/kg (optimal dose), vehicle a (0.1M acetate buffer, pH 5), vehicle control 20.0): 1.5

SMILES: CCC1(O)C(=O)OCc2c1cc1n(c2=O)Cc2c-1nc1cc3c(cc1c2CN1CCCCC1)OCCO3 (racemic) [Example 9, 7-Piperidinomethylene-10, 11-ethylenedioxy-20(R,S)-camptothecin]
- IC50 (topoisomerase Type I): 0.5 to 1 µM

SMILES: CCN(CC)Cc1c2c(nc3cc4c(cc13)OCCO4)-c1cc3c(c(=O)n1C2)COC(=O)[C@]3(O)CC [Example 14, 7-Diethylaminomethylene-10, 11-ethylenedioxy-20(S)-camptothecin]
- tumor wt day 50 / tumor wt day 14 (HT-29 human colon tumor; 2.0 mg/kg (optimal dose), vehicle a (0.1M acetate buffer, pH 5), vehicle control 20.0): 2.0
